Experimental data as given in ChEMBL document CHEMBL1909294, “Translating clinical findings into knowledge in drug safety evaluation--drug induced liver injury prediction system (DILIps)” (PLoS Comput Biol, 2011).
Where a SMILES comes first, the peptide text is derived from it. Bridges are numbered along the chain shown (N, C = ends). [ ]: non-standard residue; d: D form. The star is where a group is joined. Ileψ(thiazoline)Cys = CC[C@H](C)[C@H](N)C1=N[C@H](C(=O)*)CS1; dOrn = NCCC[C@@H](N)C(=O)O

Key:
Hepatotoxicity [1] = tested on: Hepatotoxicity;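 for HepSE cholelithiasis: hepatic side effect score for cholelithiasis, drawn from the DILIps training data for predicting drug-induced liver injury; call rule not given here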;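 for HepSE elevated liver function tests: hepatic side effect score for raised liver function tests, as recorded in the DILIps training set used for predicting drug-induced liver injury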; for HepSE hepatic failure: call rule not given here;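 for HepSE hepatic necrosis: score of hepatic side effects for hepatic necrosis, drawn from the training data of DILIps, a prediction system for drug-induced liver injury; call rule not given here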;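 for HepSE hepatomegaly: hepatic side effect score for hepatomegaly, taken from the training set of the DILIps drug-induced liver injury prediction system; call rule not given here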;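 for HepSE liver function tests abnormal: hepatic side effect score taken from the DILIps (drug-induced liver injury prediction system) training data, here covering abnormal liver function test findings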
Hepatotoxicity [2] = tested on: Hepatotoxicity; remark: listed apart in the source;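 for HepSE cholelithiasis: hepatic side effect score for cholelithiasis, drawn from the DILIps training data for predicting drug-induced liver injury; call rule not given here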;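 for HepSE elevated liver function tests: hepatic side effect score for raised liver function tests, as recorded in the DILIps training set used for predicting drug-induced liver injury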; for HepSE hepatic failure: call rule not given here;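 for HepSE hepatic necrosis: score of hepatic side effects for hepatic necrosis, drawn from the training data of DILIps, a prediction system for drug-induced liver injury; call rule not given here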;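 for HepSE hepatomegaly: hepatic side effect score for hepatomegaly, taken from the training set of the DILIps drug-induced liver injury prediction system; call rule not given here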;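 for HepSE liver function tests abnormal: hepatic side effect score taken from the DILIps (drug-induced liver injury prediction system) training data, here covering abnormal liver function test findings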
Hepatotoxicity [3] = tested on: Hepatotoxicity; remark: listed apart in the source;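 for HepSE cholelithiasis: hepatic side effect score for cholelithiasis, drawn from the DILIps training data for predicting drug-induced liver injury; call rule not given here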;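 for HepSE elevated liver function tests: hepatic side effect score for raised liver function tests, as recorded in the DILIps training set used for predicting drug-induced liver injury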; for HepSE hepatic failure: call rule not given here;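 for HepSE hepatic necrosis: score of hepatic side effects for hepatic necrosis, drawn from the training data of DILIps, a prediction system for drug-induced liver injury; call rule not given here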;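 for HepSE hepatomegaly: hepatic side effect score for hepatomegaly, taken from the training set of the DILIps drug-induced liver injury prediction system; call rule not given here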;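 for HepSE liver function tests abnormal: hepatic side effect score taken from the DILIps (drug-induced liver injury prediction system) training data, here covering abnormal liver function test findings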
Hepatotoxicity [4] = tested on: Hepatotoxicity; remark: listed apart in the source;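 for HepSE cholelithiasis: hepatic side effect score for cholelithiasis, drawn from the DILIps training data for predicting drug-induced liver injury; call rule not given here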;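 for HepSE elevated liver function tests: hepatic side effect score for raised liver function tests, as recorded in the DILIps training set used for predicting drug-induced liver injury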; for HepSE hepatic failure: call rule not given here;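 for HepSE hepatic necrosis: score of hepatic side effects for hepatic necrosis, drawn from the training data of DILIps, a prediction system for drug-induced liver injury; call rule not given here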;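 for HepSE hepatomegaly: hepatic side effect score for hepatomegaly, taken from the training set of the DILIps drug-induced liver injury prediction system; call rule not given here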;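 for HepSE liver function tests abnormal: hepatic side effect score taken from the DILIps (drug-induced liver injury prediction system) training data, here covering abnormal liver function test findings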
Hepatotoxicity [5] = tested on: Hepatotoxicity; remark: listed apart in the source; for HepSE hepatic failure: call rule not given here
Hepatotoxicity [6] = tested on: Hepatotoxicity; remark: listed apart in the source; for HepSE hepatic failure: call rule not given here
Hepatotoxicity [7] = tested on: Hepatotoxicity; remark: listed apart in the source
Hepatotoxicity [8] = tested on: Hepatotoxicity; remark: listed apart in the source
Hepatotoxicity [9] = tested on: Hepatotoxicity; remark: listed apart in the source
Hepatotoxicity [10] = tested on: Hepatotoxicity; remark: listed apart in the source
Hepatotoxicity [11] = tested on: Hepatotoxicity; remark: listed apart in the source
Hepatotoxicity [12] = tested on: Hepatotoxicity; remark: listed apart in the source
Hepatotoxicity [13] = tested on: Hepatotoxicity; remark: listed apart in the source
Hepatotoxicity [14] = tested on: Hepatotoxicity; remark: listed apart in the source

Compound | HepSE_liver function tests abnormal (Hepatotoxicity [1]) | HepSE_hepatomegaly (Hepatotoxicity [2]) | HepSE_cholelithiasis (Hepatotoxicity [3]) | HepSE_hepatic failure (Hepatotoxicity [4]) | HepSE_hepatic necrosis (Hepatotoxicity [5]) | HepSE_bilirubinemia (Hepatotoxicity [6]) | HepSE_elevated liver function tests (Hepatotoxicity [7]) | HepSE_liver disease (Hepatotoxicity [8]) | HepSE_Combined Scores (Hepatotoxicity [9]) | HepSE_jaundice (Hepatotoxicity [10]) | HepSE_cirrhosis (Hepatotoxicity [11]) | HepSE_liver fatty (Hepatotoxicity [12]) | HepSE_hepatitis (Hepatotoxicity [13]) | HepSE_cholecystitis (Hepatotoxicity [14]) | HepSE_liver function tests abnormal (Hepatotoxicity [1]; Liver) | HepSE_elevated liver function tests (Hepatotoxicity [7]; Liver) | other results
C[C@]12CCC(=O)C=C1CC[C@@H]1[C@@H]2C(=O)C[C@@]2(C)[C@H]1CC[C@]2(O)C(=O)CO [CORTISONE] | 0 | 0 | 0 | 0 | 0 | 0 | 0 | 0 | 0 | 0 | 0 | 0 | 0 | 0 |  |  | 
NC[C@H]1O[C@H](O[C@H]2[C@H](O)[C@@H](O[C@H]3O[C@H](CO)[C@@H](O)[C@H](N)[C@H]3O)[C@H](N)C[C@@H]2N)[C@H](N)C[C@@H]1O [TOBRAMYCIN] | 0 | 0 | 0 | 0 | 0 | 0 | 0 | 0 | 0 | 0 | 0 | 0 | 0 | 0 |  |  | 
CNCCCN1c2ccccc2CCc2ccccc21 [DESIPRAMINE] |  |  |  |  |  |  |  |  |  |  |  |  |  |  | 0 | 1 | HepSE_hepatomegaly (Hepatotoxicity [2]; Liver): 0; HepSE_cholelithiasis (Hepatotoxicity [3]; Liver): 0; HepSE_hepatic failure (Hepatotoxicity [4]; Liver): 0; HepSE_hepatic necrosis (Hepatotoxicity [5]; Liver): 0; HepSE_bilirubinemia (Hepatotoxicity [6]; Liver): 0; HepSE_liver disease (Hepatotoxicity [8]; Liver): 0; HepSE_Combined Scores (Hepatotoxicity [9]; Liver): 3; HepSE_jaundice (Hepatotoxicity [10]; Liver): 1; HepSE_cirrhosis (Hepatotoxicity [11]; Liver): 0; HepSE_liver fatty (Hepatotoxicity [12]; Liver): 0; HepSE_hepatitis (Hepatotoxicity [13]; Liver): 1; HepSE_cholecystitis (Hepatotoxicity [14]; Liver): 0
COCCc1ccc(OCC(O)CNC(C)C)cc1 (centres undefined) [METOPROLOL] | 0 | 0 | 0 | 0 | 0 | 0 | 0 | 0 | 2 | 1 | 0 | 0 | 1 | 0 |  |  | 
C[C@@H]1C[C@H]2[C@@H]3CCC4=CC(=O)C=C[C@]4(C)[C@@]3(Cl)[C@@H](O)C[C@]2(C)[C@@]1(O)C(=O)CCl [MOMETASONE] | 0 | 0 | 0 | 0 | 0 | 0 | 0 | 0 | 0 | 0 | 0 | 0 | 0 | 0 |  |  | 
Cc1oncc1C(=O)Nc1ccc(C(F)(F)F)cc1 [LEFLUNOMIDE] | 1 | 0 | 1 | 1 | 1 | 0 | 0 | 1 | 7 | 1 | 0 | 0 | 1 | 0 |  |  | 
CN1CCC[C@@H]1CCO[C@](C)(c1ccccc1)c1ccc(Cl)cc1 [CLEMASTINE] |  | 0 | 0 | 0 | 0 | 0 |  | 0 | 0 | 0 | 0 | 0 | 0 | 0 | 0 | 0 | 
CN1CCN(CCCN2c3ccccc3Sc3ccc(C(F)(F)F)cc32)CC1 [TRIFLUOPERAZINE] | 0 | 0 | 0 | 0 | 0 | 0 | 0 | 0 | 1 | 1 | 0 | 0 | 0 | 0 |  |  | 
CN1CCC(=C2c3ccccc3CCc3sccc32)CC1 [PIZOTYLINE] | 0 | 0 | 0 | 0 | 0 | 0 | 0 | 0 | 0 | 0 | 0 | 0 | 0 | 0 |  |  | 
CC(C)C[C@H](NC(=O)[C@@H](COC(C)(C)C)NC(=O)[C@H](Cc1ccc(O)cc1)NC(=O)[C@H](CO)NC(=O)[C@H](Cc1c[nH]c2ccccc12)NC(=O)[C@H](Cc1cnc[nH]1)NC(=O)[C@@H]1CCC(=O)N1)C(=O)N[C@@H](CCCNC(=N)N)C(=O)N1CCC[C@H]1C(=O)NNC(N)=O [GOSERELIN] | 0 | 0 | 0 | 0 | 0 | 0 | 0 | 0 | 0 | 0 | 0 | 0 | 0 | 0 |  |  | 
CC[C@H](C)[C@H](N)C1=N[C@H](C(=O)N[C@@H](CC(C)C)C(=O)N[C@H](CCC(=O)O)C(=O)N[C@H](C(=O)N[C@H]2CCCCNC(=O)[C@H](CC(N)=O)NC(=O)[C@@H](CC(=O)O)NC(=O)[C@H](Cc3cnc[nH]3)NC(=O)[C@@H](Cc3ccccc3)NC(=O)[C@H]([C@@H](C)CC)NC(=O)[C@@H](CCCN)NC2=O)[C@@H](C)CC)CS1 [BACITRACIN] ({Ileψ(thiazoline)Cys}-L[dE]IK[dOrn]I[dF]H[dD]N; lactam 4-C) | 0 | 0 | 0 | 0 | 0 | 0 | 0 | 0 | 0 | 0 | 0 | 0 | 0 | 0 |  |  | 
Clc1ccccc1CN1CCc2sccc2C1 [TICLOPIDINE] |  |  |  |  |  |  |  |  |  |  |  |  |  |  | 0 | 0 | HepSE_hepatomegaly (Hepatotoxicity [2]; Liver): 0; HepSE_cholelithiasis (Hepatotoxicity [3]; Liver): 0; HepSE_hepatic failure (Hepatotoxicity [4]; Liver): 1; HepSE_hepatic necrosis (Hepatotoxicity [5]; Liver): 1; HepSE_bilirubinemia (Hepatotoxicity [6]; Liver): 0; HepSE_liver disease (Hepatotoxicity [8]; Liver): 0; HepSE_Combined Scores (Hepatotoxicity [9]; Liver): 4; HepSE_jaundice (Hepatotoxicity [10]; Liver): 1; HepSE_cirrhosis (Hepatotoxicity [11]; Liver): 0; HepSE_liver fatty (Hepatotoxicity [12]; Liver): 0; HepSE_hepatitis (Hepatotoxicity [13]; Liver): 1; HepSE_cholecystitis (Hepatotoxicity [14]; Liver): 0
CCCCCOC(=O)Nc1nc(=O)n([C@@H]2O[C@H](C)[C@@H](O)[C@H]2O)cc1F [CAPECITABINE] | 1 | 1 | 0 | 1 | 0 | 1 | 0 | 0 | 7 | 1 | 0 | 1 | 1 | 0 |  |  | 
CC(C)(C)NCC(O)c1ccc(O)c(CO)c1 (centres undefined) [ALBUTEROL] |  |  |  |  |  |  |  |  |  |  |  |  |  |  | 0 | 0 | HepSE_hepatomegaly (Hepatotoxicity [2]; Liver): 0; HepSE_cholelithiasis (Hepatotoxicity [3]; Liver): 0; HepSE_hepatic failure (Hepatotoxicity [4]; Liver): 0; HepSE_hepatic necrosis (Hepatotoxicity [5]; Liver): 0; HepSE_bilirubinemia (Hepatotoxicity [6]; Liver): 0; HepSE_liver disease (Hepatotoxicity [8]; Liver): 0; HepSE_Combined Scores (Hepatotoxicity [9]; Liver): 0; HepSE_jaundice (Hepatotoxicity [10]; Liver): 0; HepSE_cirrhosis (Hepatotoxicity [11]; Liver): 0; HepSE_liver fatty (Hepatotoxicity [12]; Liver): 0; HepSE_hepatitis (Hepatotoxicity [13]; Liver): 0; HepSE_cholecystitis (Hepatotoxicity [14]; Liver): 0
CN1CCN(C2=Nc3cc(Cl)ccc3Nc3ccccc32)CC1 [CLOZAPINE] | 0 | 0 | 0 | 0 | 0 | 0 | 0 | 0 | 2 | 1 | 0 | 0 | 1 | 0 |  |  | 
Brc1c(NC2=NCCN2)ccc2nccnc12 [BRIMONIDINE] |  |  |  |  |  |  |  |  |  |  |  |  |  |  | 0 | 0 | HepSE_hepatomegaly (Hepatotoxicity [2]; Liver): 0; HepSE_cholelithiasis (Hepatotoxicity [3]; Liver): 0; HepSE_hepatic failure (Hepatotoxicity [4]; Liver): 0; HepSE_hepatic necrosis (Hepatotoxicity [5]; Liver): 0; HepSE_bilirubinemia (Hepatotoxicity [6]; Liver): 0; HepSE_liver disease (Hepatotoxicity [8]; Liver): 0; HepSE_Combined Scores (Hepatotoxicity [9]; Liver): 0; HepSE_jaundice (Hepatotoxicity [10]; Liver): 0; HepSE_cirrhosis (Hepatotoxicity [11]; Liver): 0; HepSE_liver fatty (Hepatotoxicity [12]; Liver): 0; HepSE_hepatitis (Hepatotoxicity [13]; Liver): 0; HepSE_cholecystitis (Hepatotoxicity [14]; Liver): 0
